Source: patent US20240158446A1, “CYCLIC COMPOUND HAVING SELECTIVE INHIBITORY ACTION ON KRAS OVER HRAS AND NRAS” (CHUGAI SEIYAKU KABUSHIKI KAISHA, priority 2021, published 2024)
pIC50, pKd: −log10 of the molar value. Read-outs that look alike come from different tables or passages of the source. Where a SMILES comes first, the peptide text is derived from it. Bridges are numbered along the chain shown (N, C = ends). [ ]: non-standard residue; d: D form. The star is where a group is joined. hPhe(3,5-F2-4-CF3) = N[C@@H](CCc1cc(F)c(C(F)(F)F)c(F)c1)C(=O)O; NPrPhe(4-CF3) = CCCN[C@@H](Cc1ccc(C(F)(F)F)cc1)C(=O)O; NMeGly(cPent) = CN[C@H](C(=O)O)C1CCCC1; NMeD = CN[C@@H](CC(=O)O)C(=O)O; NMeL = CN[C@@H](CC(C)C)C(=O)O; αMeL = CC(C)C[C@](C)(N)C(=O)O; Morpholide = C1CN(*)CCO1; Sar = CNCC(=O)O

Experiments:
[1] = biological target: GDP-bound KRAS wild-type protein (Homo sapiens, UniProt P01116); assay: Binding to KRAS by surface plasmon resonance (SPR), Single Cycle Kinetics; conditions: GDP-bound KRAS wild-type protein, read-out: KRAS KD
Sequence of GDP-bound KRAS wild-type protein (P01116 whole entry): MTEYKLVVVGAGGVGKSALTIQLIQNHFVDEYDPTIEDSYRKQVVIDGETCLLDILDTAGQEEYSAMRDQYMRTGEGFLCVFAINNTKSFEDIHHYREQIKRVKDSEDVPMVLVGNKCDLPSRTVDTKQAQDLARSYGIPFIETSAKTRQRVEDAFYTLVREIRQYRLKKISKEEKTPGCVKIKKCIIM

[2] = biological target: GDP-bound NRAS wild-type protein (Homo sapiens, UniProt P01111); assay: Binding to NRAS by surface plasmon resonance (SPR), Single Cycle Kinetics; conditions: for NRAS/KRAS (ratio of KD value with respect to GDP-bound NRAS wild-type protein to KD value with respect to KRAS): SPR KD ratio NRAS/KRAS, class symbols
Sequence of GDP-bound NRAS wild-type protein (P01111 whole entry): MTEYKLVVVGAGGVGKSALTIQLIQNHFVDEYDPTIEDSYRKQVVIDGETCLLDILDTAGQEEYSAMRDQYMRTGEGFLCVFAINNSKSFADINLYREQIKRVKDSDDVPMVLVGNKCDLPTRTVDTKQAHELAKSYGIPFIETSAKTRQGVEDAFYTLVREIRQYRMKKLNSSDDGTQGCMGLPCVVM

[3] = test system: human lung cancer strain NCI-H441;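 note: cell proliferation inhibition after four days measured by CellTiter-Glo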
[4] = biological target: GDP-bound HRAS wild-type protein (Homo sapiens, UniProt P01112); assay: Binding to HRAS by surface plasmon resonance (SPR), Single Cycle Kinetics; conditions: for HRAS/KRAS (ratio of KD value with respect to GDP-bound HRAS wild-type protein to KD value with respect to KRAS): SPR KD ratio HRAS/KRAS, class symbols
Sequence of GDP-bound HRAS wild-type protein (P01112 whole entry): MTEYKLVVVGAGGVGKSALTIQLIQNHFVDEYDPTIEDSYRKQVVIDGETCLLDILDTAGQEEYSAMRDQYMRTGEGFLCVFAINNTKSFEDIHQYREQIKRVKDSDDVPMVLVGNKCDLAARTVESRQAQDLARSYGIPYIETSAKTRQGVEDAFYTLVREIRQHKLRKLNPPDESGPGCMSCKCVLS

[5] = SPR Single Cycle Kinetics, 1:1 binding model
[6] = SPR, GDP-bound NRAS wild-type protein vs GDP-bound KRAS wild-type protein
[7] = SPR, GDP-bound HRAS wild-type protein vs GDP-bound KRAS wild-type protein
[8] = SPR, Single Cycle Kinetics, 1:1 binding model
[9] = SPR, GDP-bound NRAS wild-type protein vs GDP-bound KRAS wild-type protein, KD ratio class
[10] = SPR, GDP-bound HRAS wild-type protein vs GDP-bound KRAS wild-type protein, KD ratio class

Compound	pIC50 [3]	pKd ([1]; SPR, Single Cycle Kinetics)	NRAS/KRAS (ratio of KD value for NRAS to KD value for KRAS) [2, 6]	HRAS/KRAS (ratio of KD value for HRAS to KD value for KRAS) [4, 7]	pKd [1, 8]	NRAS/KRAS (ratio of KD value for NRAS to KD value for KRAS) [2, 9]	HRAS/KRAS (ratio of KD value for HRAS to KD value for KRAS) [4, 10]	other results
CCCN1C(=O)CN(C)C(=O)CN(C)C(=O)[C@H]([C@@H](C)CC)NC(=O)[C@H](CC(C)C)N(C)C(=O)C[C@@H](C(=O)N2CCOCC2)N(C)C(=O)[C@H](C2CCCC2)N(C)C(=O)[C@](C)(CC(C)C)NC(=O)[C@@H]2CCCN2C(=O)[C@H](CCc2cc(F)c(C(F)(F)F)c(F)c2)NC(=O)CN(C)C(=O)[C@@H]1Cc1ccc(C(F)(F)F)cc1 [PP0759] ([NMeL]I[Sar][Sar][NPrPhe(4-CF3)][Sar][hPhe(3,5-F2-4-CF3)]P[αMeL][NMeGly(cPent)][NMeD]-Morpholide; lactam N-11)	6.73							pKd [1, 5]: 8.57; NRAS/KRAS (ratio of KD value with respect to NRAS to KD value with respect to KRAS) [2, 6]: B (a compound having 3 or more and less than 10 is denoted as B); HRAS/KRAS (ratio of KD value with respect to HRAS to KD value with respect to KRAS) [4, 7]: B (a compound having 3 or more and less than 10 is denoted as B)
CCC[C@H]1C(=O)N[C@@H]([C@@H](C)CC)C(=O)N(C2CC2)CC(=O)N(C)[C@H]2C/C=C\CCN(C2=O)[C@@H](CC2CCC(F)(F)CC2)C(=O)N(C)CC(=O)N[C@@H](CCc2cc(F)c(C(F)(F)F)c(F)c2)C(=O)N2C[C@H](OCC)C[C@H]2C(=O)NC2(CC(C)(C)C2)C(=O)N(C)[C@@H](C2CCCC2)C(=O)N(C)[C@H](C(=O)N(C)C)CC(=O)N1C [PP2566]	7.75							pKd [1, 5]: 9.24; NRAS/KRAS (ratio of KD value with respect to GDP-bound NRAS wild-type protein to KD value with respect to KRAS) [2]: A (a compound having 10 or more and less than 20 is denoted as A); HRAS/KRAS (ratio of KD value with respect to GDP-bound HRAS wild-type protein to KD value with respect to KRAS) [4]: B (a compound having 3 or more and less than 10 is denoted as B)
CCOC[C@H]1C(=O)N[C@@H]([C@@H](C)CC)C(=O)N(C)CC(=O)N(C)[C@H]2C/C=C\CCN(C2=O)[C@@H](CC2CCC(F)(F)CC2)C(=O)N(C)CC(=O)N[C@@H](CCc2ccc(C(F)(F)F)c(Cl)c2)C(=O)N2C[C@H](OCC)C[C@H]2C(=O)NC2(CC(C)(C)C2)C(=O)N(C)[C@@H](C(CC)CC)C(=O)N(C)[C@H](C(=O)N(C)C)CC(=O)N1C [PP2460]	7.73	9.15	A (a compound having 10 or more and less than 20 is denoted as A)	A (a compound having 10 or more and less than 20 is denoted as A)				
CC[C@H](C)[C@@H]1NC(=O)[C@H](CC2CC2)N(C)C(=O)C[C@@H](C(=O)N(C)C)N(C)C(=O)[C@H](C2CCCC2)N(C)C(=O)C2(CCC2)NC(=O)[C@H](CC(F)F)N(C)C(=O)[C@H](CCc2cc(F)c(C(F)(F)F)c(F)c2)NC(=O)CN(C)C(=O)[C@H](Cc2ccc(C(F)(F)F)cc2)N2CC/C=C\C[C@@H](C2=O)N(C)C(=O)CN(C)C1=O [PP1403]	6.96				9.22	AA (a compound having 20 or more is denoted as AA)	A (a compound having 10 or more and less than 20 is denoted as A)	
CCO[C@@H]1C[C@H]2C(=O)NC3(CCC3)C(=O)N(C)[C@@H](C3CCCC3)C(=O)N(C)[C@H](C(=O)N3CCOCC3)CC(=O)N(C)[C@@H](Cc3cccc(C)c3)C(=O)N[C@@H]([C@@H](C)CC)C(=O)N(C)CC(=O)N(C)[C@H]3CCCCCN(C3=O)[C@@H](Cc3ccc(C(F)(F)F)cc3)C(=O)N(C)CC(=O)N[C@@H](CCc3cc(F)c(C(F)(F)F)c(F)c3)C(=O)N2C1 [PP0932]	6.80	8.54	B (a compound having 3 or more and less than 10 is denoted as B)	B (a compound having 3 or more and less than 10 is denoted as B)				
CCO[C@@H]1C[C@H]2C(=O)NC3(CCCC3)C(=O)N(C)[C@@H](C3CCCC3)C(=O)N(C)[C@H](C(=O)N(C)C)CC(=O)N(C)[C@@H](CC)C(=O)N[C@@H]([C@@H](C)CC)C(=O)N(C)CC(=O)N(C)[C@H]3C/C=C\CCN(C3=O)[C@@H](Cc3ccc(C(F)(F)F)cc3)C(=O)N(C)CC(=O)N[C@@H](CCc3cc(F)c(C(F)(F)F)c(F)c3)C(=O)N2C1 [PP1276, (2S,8S,12R,14S,20S,23S,27S,30S,36S,38Z)-20-cyclopentyl-8-[2-[3,5-difluoro-4-(trifluoromethyl)phenyl]ethyl]-12-ethoxy-27-ethyl-N,N,4,19,22,26,32,35-octamethyl-30-[(1S)-1-methylpropyl]-3,6,9,15,18,21,25,28,31,34,42-undecaoxo-2-[[4-(trifluoromethyl)phenyl]methyl]spiro[1,4,7,10,16,19,22,26,29,32,35-undecazatricyclo[34.5.1.0^10,14]dotetracont-38-ene-17,1′-cyclopentane]-23-carboxamide]	7.68				10.18	A (a compound having 10 or more and less than 20 is denoted as A)	B (a compound having 3 or more and less than 10 is denoted as B)	
CCC(CC)[C@H]1C(=O)N(C)[C@H](C(=O)N(C)C)CC(=O)N(C)[C@@H](CC2CC2)C(=O)N[C@@H]([C@@H](C)CC)C(=O)N(C)CC(=O)N(C)[C@H]2C/C=C\CCN(C2=O)[C@@H](CC2CCC(F)(F)CC2)C(=O)N(C)CC(=O)N[C@@H](CCc2ccc(C(F)(F)F)c(OC)c2)C(=O)N2C[C@@H](C)C[C@H]2C(=O)NC2(CC(C)(C)C2)C(=O)N1C [PP2494]	7.40	8.74	A (a compound having 10 or more and less than 20 is denoted as A)	A (a compound having 10 or more and less than 20 is denoted as A)				
CC[C@H](C)[C@@H]1NC(=O)[C@H](CC)N(C)C(=O)C[C@@H](C(=O)N(C)C)N(C)C(=O)[C@H](C2CCCC2)N(C)C(=O)C2(CCC2)NC(=O)[C@H](CC2CCCCC2)N(C)C(=O)[C@H](CCc2cc(F)c(C(F)(F)F)c(F)c2)NC(=O)CN(C)C(=O)[C@H](Cc2ccc(C(F)(F)F)cc2)N2CC/C=C\C[C@@H](C2=O)N(C)C(=O)CN(C)C1=O [PP1149]	6.76	9.37	A (a compound having 10 or more and less than 20 is denoted as A)	A (a compound having 10 or more and less than 20 is denoted as A)				
CCC[C@H]1C(=O)N[C@@H]([C@@H](C)CC)C(=O)N(C)CC(=O)N(C)[C@H]2C/C=C\CCN(C2=O)[C@@H](Cc2ccc(C)cc2)C(=O)N(C)CC(=O)N[C@@H](CCc2ccc(Cl)c(Cl)c2)C(=O)N2C[C@H](OC3CCC3)C[C@H]2C(=O)NC2(CC(C)(C)C2)C(=O)N(C)[C@@H](C(CC)CC)C(=O)N(C)[C@H](C(=O)N(C)C)CC(=O)N1C [PP2644]	7.12							pKd [1, 5]: 9.09; NRAS/KRAS (ratio of KD value with respect to GDP-bound NRAS wild-type protein to KD value with respect to KRAS) [2]: AA (a compound having 20 or more is denoted as AA); HRAS/KRAS (ratio of KD value with respect to GDP-bound HRAS wild-type protein to KD value with respect to KRAS) [4]: A (a compound having 10 or more and less than 20 is denoted as A)
CCO[C@@H]1C[C@H]2C(=O)NC3(CCC3)C(=O)N(C)[C@@H](C3CCCC3)C(=O)N(C)[C@H](C(=O)N(C)C)CC(=O)N(C)[C@@H](CC3CCCC3)C(=O)N[C@@H]([C@@H](C)CC)C(=O)N(C)CC(=O)N(C)[C@H]3C/C=C\CCN(C3=O)[C@@H](Cc3ccc(C(F)(F)F)cc3)C(=O)N(C)CC(=O)N[C@@H](CCc3ccc4sccc4c3)C(=O)N2C1 [PP1261]	7.11				9.36	A (a compound having 10 or more and less than 20 is denoted as A)	A (a compound having 10 or more and less than 20 is denoted as A)	
CCOC[C@H]1C(=O)N[C@@H]([C@@H](C)CC)C(=O)N2CCC[C@H]2C(=O)N(C)[C@H]2C/C=C\CCN(C2=O)[C@@H](CC2CCCCC2)C(=O)N(C)CC(=O)N[C@@H](CCc2ccc(C(F)(F)F)c(OC)c2)C(=O)N2C[C@@H](C)C[C@H]2C(=O)N(C)C2(CCC2)C(=O)N(C)[C@@H](C2CCCC2)C(=O)N(C)[C@H](C(=O)N(C)C)CC(=O)N1C [PP2375]	6.77	8.96	A (a compound having 10 or more and less than 20 is denoted as A)	B (a compound having 3 or more and less than 10 is denoted as B)				
CCO[C@@H]1C[C@H]2C(=O)NC3(CCC3)C(=O)N(C)[C@@H](C3CCCC3)C(=O)N(C)[C@H](C(=O)N(C)C)CC(=O)N(C)[C@@H](CC(C)C)C(=O)N[C@@H]([C@@H](C)CC)C(=O)N(C)CC(=O)N(C)[C@H]3C/C=C\CCN(C3=O)[C@@H](Cc3ccc(C(F)(F)F)cc3)C(=O)N(C)CC(=O)N[C@@H](CCc3ccc4sccc4c3)C(=O)N2C1 [PP1257]	7.27				9.48	A (a compound having 10 or more and less than 20 is denoted as A)	A (a compound having 10 or more and less than 20 is denoted as A)	
CCOC[C@H]1C(=O)N[C@@H]([C@@H](C)CC)C(=O)N(C)CC(=O)N(C)[C@H]2C/C=C\CCN(C2=O)[C@@H](Cc2ccc(C)cc2)C(=O)N(C)CC(=O)N[C@@H](CCc2ccc(C(F)(F)F)c(Cl)c2)C(=O)N2C[C@H](OCC)C[C@H]2C(=O)NC2(CC(C)(C)C2)C(=O)N(C)[C@@H](C2CCCC2)C(=O)N(C)[C@H](C(=O)N(C)C)CC(=O)N1C [PP2395]	8.20	10.14	A (a compound having 10 or more and less than 20 is denoted as A)	B (a compound having 3 or more and less than 10 is denoted as B)				
